Source: patent US11110070B2 (priority 2015, dated 2021)
“Also recorded” adds a separate entry of the source.

Assays:
animals = conditions: in vivo, ip; cited from earlier work
129S6/SvEvTac mice [1] = assay: Learned helplessness (LH) shock escape; assay type: in vivo; conditions: ketamine 30 mg kg^−1 1 week before LH training, vs saline
Method: Experiment 4 (Pre-ketamine in learned helplessness (LH)); At 8 weeks of age, a single injection of saline or ketamine (30 mg kg^−1) was administered. One week following this injection, LH training (inescapable shock) was administered. Two weeks later, mice were administered LH testing (shock escape).
The LH paradigm was used to induce depressive-like behavior (A4). In this paradigm, mice are exposed to unpredictable and uncontrollable stress (shocks) and then develop coping deficits to deal with the inescapable shocks. We modified a previously published paradigm (A5). Briefly, the procedure was conducted in a two-chamber shuttle box (model ENV 010MD; Med Associates, St. Albans, Vt.) located within a sound-attenuated cubicle. The grid floor was made of stainless steel and connected to a shock generator. The scrambled shock generator (model ENV 414S, Med Associates) created varying electrical potential differences between bars preventing an animal from avoiding shock.
Inescapable shock (training): At approximately 9 weeks of age, mice were trained in the LH paradigm. For each shuttle box, 2 animals were administered the protocol at the same time: the central door was closed, with one animal in the chamber on each side. After a 3 min habituation period, the shock deliveries began. […]

C57BL/6NTac mice = assay: NSF in CORT model; assay type: in vivo; conditions: ketamine 10 and 90 mg kg^−1 before CORT
Method: Experiment 5 (Pre-ketamine and pre-fluoxetine corticosterone (CORT)): C57BL16NTac mice were injected with ketamine (10, 30, 90 mg kg^−1, i.p.) 1 week before the start of CORT, or administered fluoxetine (18 mg kg^−1 per day) in the drinking water for 3 weeks before the start of CORT. Ketamine was purchased from Merial (100 mg/ml stock solution). Fluoxetine hydrochloride (160 μg/mL, equivalent to 18 mg kg^−1 per day in the drinking water) was purchased from Anawa Trading (Zurich, Switzerland) and dissolved in 0.45% hydroxypropyl-β-cyclodextrin (β-CD) (Sigma-Aldrich, Saint-Quentin Fallavier, France) solution. Following ketamine or fluoxetine treatment, CORT was administered for 3 weeks in the drinking water. CORT (4-pregnen-11b-DIOL-3 20-DIONE 21-hemisuccinate) (35 μg/ml) from. Sigma Aldrich (Saint-Quentin Fallavier, France) was dissolved in vehicle (0.45% β-CD). Control animals received vehicle (0.45% β-CD) throughout the duration of the experiment. […]
Testing was performed as previously described (A13). […] The latency of the mice to begin eating was recorded. Immediately after the latency was recorded, the food pellet was removed from the arena. The mice were then placed into a cage and the amount of food consumed in 5 min was measured (home cage consumption), followed by an assessment of post-restriction weight. […]

129S6/SvEvTac mice [2] = assay: Dominant interaction test after SD; assay type: in vivo
Method: Adult aggressor CD-1 male mice were single-housed in Macrolon® polycarbonate resin cages (15.25 in×7.8 in×9.5 in) (Animal Care Systems, Inc., Centennial, Colo.). Male 129S6/SvEvTac mice (9 weeks of age) were subsequently placed into the resident. CD-1 mouse's cage. Three antagonistic encounters were allowed between the CD-1 mouse and the intruder. Each of these encounters typically lasted less than 5 min. Following the encounters, mice were separated by a polished stainless steel cage divider (Animal Care Systems, Inc., Centennial, Colo., P/N C79171), which allowed for olfactory and auditory communication, but limited visual or tactile contact. The partition was removed daily for 2 weeks and 3 antagonistic encounters were allowed between the mice each day. This procedure consistently yielded a submissive phenotype in the experimental intruder mice. Control (Ctrl) mice were group housed 4 to 5 per cage in Macrolon® polycarbonate resin cages without dividers.
Dominant interaction was performed as previously described (A12). Briefly, mice were placed into a large open field containing 2 upside-down wire mesh pencil cups. One pencil cup served as a novel object or empty container. The other pencil cup contained the CD-1 aggressor mouse. Mice were placed in the middle of the open field arena and allowed to explore for 10 min. Sessions were videotaped and the first 5 min were later analyzed using behavioral tracking software (TopScan, CleverSys, Reston, Va.).

129S6/SvEvTac mice [3] = assay: FST after reinstatement; assay type: in vivo
Method: The FST was administered as previously described (Richardson-Jones et al., 2010; Brachman et al., 2016).

[4] = Body weight loss before NSF in SD experiments; assay type: in vivo; conditions: SD mice; ketamine after SD; vs saline
Method: Testing was performed as previously described (A13). Briefly, the testing apparatus consisted of a plastic box (50×50×20 cm). The floor was covered with approximately 2 cm of wooden bedding and the arena was brightly lit (1100-1200 lux). For 129S6/SvEv experiments, mice were food restricted for 12 h. For the C57BL/6N experiments, mice were food restricted for 24 h. All food was removed from the home cage. At the time of testing, a single pellet of food (regular chow) was placed on a white paper platform positioned in the center of the box. Each animal was placed in a corner of the box, and a stopwatch was immediately started. The latency of the mice to begin eating was recorded. Immediately after the latency was recorded, the food pellet was removed from the arena. The mice were then placed into a cage and the amount of food consumed in 5 min was measured (home cage consumption), followed by an assessment of post-restriction weight. We used the Kaplan-Meier survival analysis due to the lack of normal distribution of data. The Mantel-Cox log-rank test was used to evaluate differences between the experimental groups.

patients with MDD = conditions: cited from earlier work
[5] = SD mice, ketamine 30 mg kg^−1 before SD, vs SD-Sal

Question: With `CNC1(c2ccccc2Cl)CCCCC1=O` (racemic) [ketamine, (RS)-2-(2-chlorophenyl)-2-(methylamino)cyclohexanone] as the compound, how does the “reaction time to the hot plate test” value (animals) read?
Answer: increased reaction time to the hot plate test

Question: And the “latency to escape the shock” value (129S6/SvEvTac mice [1]; testing 2 weeks later)?
Answer: decreased latency to escape the shock; also recorded: significantly less

Question: What about the “session length (all 30 trials)” value (129S6/SvEvTac mice [1]) of the same compound?
Answer: significantly shorter; also recorded: significantly less

Question: What about the “latency to feed in NSF” value (C57BL/6NTac mice) of the same compound?
Answer: prevented the chronic CORT-induced increase in latency to feed; also recorded: decreased the latency to feed

Question: And the “time investigating the empty enclosure quadrant” value (129S6/SvEvTac mice [2]; Ctrl mice, ketamine 30 mg kg^−1 vs saline)?
Answer: equivalent amount of time investigating the empty enclosure quadrant

Question: What about the “interaction with the CD-1 aggressor mouse” value (129S6/SvEvTac mice [2]; [5]) of the same compound?
Answer: significantly increased willingness to interact with the CD-1; also recorded: considerably more time investigating a CD-1 mouse

Question: What about the “time investigating the empty enclosure quadrant” value (129S6/SvEvTac mice [2]; [5]) of the same compound?
Answer: significantly less time investigating the empty enclosure quadrant

Question: And the “time immobile in the FST” value (129S6/SvEvTac mice [3]; ketamine 1 week prior to 1-shock reinstatement)?
Answer: equal levels of immobility

Question: What about the “time immobile in the FST” value (129S6/SvEvTac mice [3]; ketamine 1 week prior to 3-shock reinstatement) of the same compound?
Answer: equal levels of immobility in the FST

Question: And the “percentage of weight loss” value [4]?
Answer: lessened the percentage of weight loss; also recorded: attenuated this weight loss

Question: And the “duration of sustained effects following the infusion” value (patients with MDD; in vivo)?
Answer: 1-2 weeks

Question: And the “time to antidepressant effects following a single injection” value (patients with MDD; patients with MDD)?
Answer: 2 h
